Entries after “also recorded” stand apart in the source; their conditions may differ.
What was measured:
splenocytes = experiment: NO scavenging activity in Concanavalin A-treated splenocytes (Griess assay); format: cell-based, C57BL/6 mouse; conditions: Mus musculus, Splenocyte, Concanavalin A 5 µg/mL, 72 hours, read-out: NO Scavenging Activity (%) (Mean±SD)
In short: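 Splenocytes from 8-week-old C57BL/6 mice at 5×10^6 cells/mL in RPMI 1640/10% FBS, stimulated with Concanavalin A (5 µg/mL) plus […] test composition added at plating. After 72 h culture, remaining NO in supernatant measured by Griess assay.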

IFN-γ = IFN-γ reduction activity in Concanavalin A-treated splenocytes (quantitative ELISA); format: cell-based, C57BL/6 mouse; conditions: Mus musculus, Splenocyte, Concanavalin A 5 µg/mL, 72 hours, read-out: IFN-γ Reduction Activity (%) (Mean±SD)
In short: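 Splenocytes from 8-week-old C57BL/6 mice at 5×10^6 cells/mL in RPMI 1640 with 10% FBS, stimulated with Concanavalin A (5 µg/mL) plus compound added concentration-dependently. Supernatant IFN-γ measured by quantitative ELISA after 72 h.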

[1] = Efficacy on DSS induced ulcerative colitis (disease activity index); format: in vivo, mice
Protocol: In order to establish an ulcerative colitis model, 2.5% DSS powder was mixed with drinking water and provided ad libitum. The DSS powder-containing drinking water was supplied for 5 to 6 days of disease induction period, and after that, normal drinking water was supplied.
The administered compounds of Table 21 were administered orally once daily. Hematochezia, diarrhea and body weight loss were scored according to the criteria shown in the following Table 22, and the scores were summed to calculate a disease activity index (DAI), which is shown in FIG. 4.
Efficacy of Compound (4) on ulcerative colitis was verified in the same manner as in Experimental Example 10-1, except that Compound (4) was used instead of Compound (1), and DSS was administered until day 5, and the drug was administered from day 6.

[2] = Efficacy on collagen-induced rheumatoid arthritis (arthritis score); format: in vivo, DBA/1 male mice
Protocol: (§1) The experimental animals were 30 8-week-old DBA/1 male mice. […] The number of normal mice was set to five in order to minimize the number of experimental animals. The group administered with Compound (1) consisted of 5 to 6 mice, a minimal number required to obtain statistically meaningful data given the limited amount of the drug.
(§2) In order to establish a rheumatoid arthritis model, 100 µL of a mixture solution in which 2 mg/mL of chick type II collagen and 1 mg/mL of Complete Freund's Adjuvant (CFA) were mixed in a ratio of 1:1 was administered intradermally to each of the mouse tails. After 19 days, 100 µL of an emulsion in which 2 mg/mL of chick type II collagen and Incomplete Freund's Adjuvant (IFA) were mixed in a ratio of 1:1 was administered intradermally to each of the mouse tails.
The test substances of Table 23 were administered orally every day according to the drug dosing period and dosing frequency. As for the rheumatoid arthritis score (arthritis score), the score of each of the four paws was quantified according to the criteria shown in the following Table 24, and the individual scores were summed to generate the final score.
as §1, with “31” for “30”, “(11)” for “(1)”, “5” for “5 to 6”, “drug. Each of the remaining groups consisted of 7 mice, with two extra mice added to account for experimental error.” for “drug.”
as §2
Oral administration was conducted daily according to the dose, dosing frequency and dosing period of Table 25. Based on the criteria shown in Table 24, rheumatoid arthritis score for the four paws were quantified and summed to generate the score.

JAK 1 = JAK 1 (Homo sapiens, UniProt P23458); experiment: JAK Human TK kinase enzymatic radiometric assay (Eurofins), JAK 1; conditions: value close to 100 indicates low JAK activity of the compound
[3] = Hematological toxicity evaluation after single oral administration (routine blood test); conditions: single oral dose 200 mg/kg and 800 mg/kg, compared with the normal group

Chain of JAK 1 (P23458 whole entry): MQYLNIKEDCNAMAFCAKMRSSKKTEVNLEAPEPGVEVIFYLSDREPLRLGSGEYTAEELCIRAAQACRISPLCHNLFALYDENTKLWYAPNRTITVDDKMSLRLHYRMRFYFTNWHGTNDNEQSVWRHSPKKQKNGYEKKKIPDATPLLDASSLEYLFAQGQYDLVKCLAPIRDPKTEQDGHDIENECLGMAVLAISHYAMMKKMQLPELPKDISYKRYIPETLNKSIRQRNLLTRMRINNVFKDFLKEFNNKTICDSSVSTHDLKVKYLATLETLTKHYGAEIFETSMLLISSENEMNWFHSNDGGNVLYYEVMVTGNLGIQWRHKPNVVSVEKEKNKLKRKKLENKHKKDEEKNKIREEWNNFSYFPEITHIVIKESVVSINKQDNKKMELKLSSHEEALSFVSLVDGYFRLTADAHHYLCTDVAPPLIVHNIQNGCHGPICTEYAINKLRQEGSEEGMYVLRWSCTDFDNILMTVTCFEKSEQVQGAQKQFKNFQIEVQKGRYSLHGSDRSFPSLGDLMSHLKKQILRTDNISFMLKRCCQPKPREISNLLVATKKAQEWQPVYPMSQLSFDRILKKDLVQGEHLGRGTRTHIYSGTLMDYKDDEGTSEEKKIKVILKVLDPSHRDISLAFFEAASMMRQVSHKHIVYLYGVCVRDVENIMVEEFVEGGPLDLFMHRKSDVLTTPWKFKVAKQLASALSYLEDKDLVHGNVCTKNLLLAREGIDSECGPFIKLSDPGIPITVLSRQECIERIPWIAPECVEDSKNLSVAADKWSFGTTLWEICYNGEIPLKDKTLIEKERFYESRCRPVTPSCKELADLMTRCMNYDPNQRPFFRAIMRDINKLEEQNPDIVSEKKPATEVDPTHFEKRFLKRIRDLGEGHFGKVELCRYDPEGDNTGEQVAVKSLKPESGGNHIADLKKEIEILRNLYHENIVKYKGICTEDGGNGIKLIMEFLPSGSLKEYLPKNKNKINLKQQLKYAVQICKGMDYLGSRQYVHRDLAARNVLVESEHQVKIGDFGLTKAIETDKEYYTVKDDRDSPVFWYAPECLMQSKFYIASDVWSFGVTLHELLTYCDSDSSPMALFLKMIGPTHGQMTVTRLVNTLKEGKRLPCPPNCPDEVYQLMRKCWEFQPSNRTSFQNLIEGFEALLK

## C[C@@H]1CCN(C(=O)CC#N)C[C@@H]1N(C)c1ncnc2c1ccn2C(=O)Nc1ccccc1N [Example 1, N-(2-aminophenyl)-4-(((3R,4R)-1-(2-cyanoacetyl)-4-methylpiperidin-3-yl) (methyl)amino)-7H-pyrrolo[2,3-d]pyrimidine-7-carboxamide]
splenocytes
  activity at 10 µM: 98.1 ± 0.09%
IFN-γ
  activity at 10 µM: 91.5 ± 1.37%
[1]; 25 mg/kg oral once daily from day 3, day 7 of the test, p<0.01, FIG. 4
  efficacy on disease activity index (DAI): statistically significant efficacy was observed
[1]; 25 mg/kg oral once daily, FIGS. 4 and 5
  efficacy in alleviating ulcerative colitis compared to tofacitinib: comparable to that of tofacitinib on average; also recorded: comparable or more superior efficacy
[2]; 30 mg/kg and 60 mg/kg oral once daily, entire period of the experiment
  alleviation of rheumatoid arthritis compared with tofacitinib: comparable to or higher than 40 mg/kg of tofacitinib
[2]; 30 mg/kg oral once daily, FIG. 6
  average rheumatoid arthritis score compared with tofacitinib: comparable to that of the group administered with 40 mg/kg of tofacitinib
[2]; 30 mg/kg oral once daily, day 42 to day 47 after disease induction, FIG. 6
  rheumatoid arthritis-alleviating efficacy (arthritis score): no statistically significant alleviating efficacy was observed
[2]; 30 mg/kg oral once daily, day 49 to the end of the experiment (p<0.05), FIG. 6
  rheumatoid arthritis-alleviating efficacy (arthritis score): statistically significant alleviating efficacy was observed again
[2]; 30 mg/kg oral once daily, from day 35 after disease induction (p<0.05), FIG. 6
  rheumatoid arthritis-alleviating efficacy (arthritis score): Alleviating efficacy was observed
[2]; 60 mg/kg oral once daily, from day 33 after disease induction (p<0.01) to the end, FIG. 6
  rheumatoid arthritis-alleviating efficacy compared with tofacitinib: comparable to or higher than that of the group administered with 40 mg/kg of tofacitinib
JAK 1; 0.1 nM
  JAK 1 Activity: 101
JAK 1; 1 nM
  JAK 1 Activity: 102
JAK 1; 10 nM
  JAK 1 Activity: 45
JAK 1; 100 nM
  JAK 1 Activity: 7
[3]
  hematological toxicity responses: No hematological toxicity responses were observed

— patent EP4741395A1, “NOVEL COMPOUND SENSITIVE TO NITROGEN MONOXIDE AND PHARMACEUTICAL COMPOSITION COMPRISING SAME” (Omniamed Co. Ltd, priority 2023, dated 2025)
